Results taken from patent US6383773B2, “Penicillin conversion” (Massachusetts Institute of Technology, priority 1998, dated 2002).

Tests used:
C. acremonium expandase = target: T1, C. acremonium expandase (Hapsidospora chrysogena, UniProt P11935); conditions: cited from earlier work
T1 sequence (P11935 1-332): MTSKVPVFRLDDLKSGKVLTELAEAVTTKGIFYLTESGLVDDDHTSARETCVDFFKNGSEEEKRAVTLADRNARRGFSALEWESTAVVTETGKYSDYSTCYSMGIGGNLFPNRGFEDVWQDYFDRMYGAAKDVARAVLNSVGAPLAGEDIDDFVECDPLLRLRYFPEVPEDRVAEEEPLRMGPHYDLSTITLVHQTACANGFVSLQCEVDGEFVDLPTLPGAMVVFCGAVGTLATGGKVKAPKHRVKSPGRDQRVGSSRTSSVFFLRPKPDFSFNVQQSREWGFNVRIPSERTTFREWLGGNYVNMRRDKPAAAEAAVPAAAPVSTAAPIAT

[1] = target: T2, expandase from S. clavuligerus (Streptomyces clavuligerus, UniProt P18548); assay: Ring expansion by cell-free extracts of S. lividans transformant pHJ11 (Example 7); assay type: biochemical; conditions: pHJ11 cell-free extract 6 mg/ml protein, substrate 5.6 mM, after 4 h of reaction
T2 construct: made in house; host or cells: S. lividans 1326 transformed with pHJ11, crude cell-free extract
Procedure: (§1) Microorganism, Medium and Culture Conditions: S. lividans 1326 was used in all experiments. Cultures were grown in 250 ml baffled flasks containing 40 ml of MST medium. Each flask was inoculated with 50 μl of a spore suspension (prepared and stored at −80° C. in 20% glycerol) and incubated at 30° C., 250 rpm, for 48 h.
(§2) Plasmids: The plasmid pUL702-202a was a gift from J. F. Martin (University of León, Spain). This vector harboured a 4.3 Kb BglII fragment containing the epimerase and expandase genes from Nocardia lactamdurans inserted at the BglII site on pIJ702. The plasmid pHJ11 was constructed by cloning a 3 Kb BglII fragment containing the expandase gene from S. clavuligerus 3585 into pIJ702 at the BglII site.
(§3) Ring Expansion Reaction: The ring expansion mixture contained 1.8 mM FeSO4, 1.28 mM α-ketoglutarate, 6 mg/ml protein (cell-free extract), 8 mM KCl, 8 mM MgSO4, 14 mM DTT and 50 mM TrisHCl (pH 7.4) in a final volume of 2.5 ml. Substrate concentration was 5.6 mM. Additions were made following the order established by Shen et al. (Enzyme Microb. Technol. 6:402-404, 1984). Reaction mixtures were incubated in test tubes at 220 rpm, 30° C. At different times, 0.5 ml samples were taken and the reaction was stopped by adding 0.5 ml of methanol. […] Biotransformation activity was detected by paper disc-agar diffusion bioassay. […]

[2] = target: T3, S. clavuligerus expandase (Streptomyces clavuligerus, UniProt P18548); conditions: literature reports (Jensen 1982; Dotzlaf 1989; Yeh 1994; Maeda 1995); cited from earlier work
T3 construct: The cells were resuspended in the same buffer and disrupted by four 25-sec. sonication treatments; endogenous in cells; host or cells: S. clavuligerus mutant NP1, crude cell-free extract

[3] = target: T4, expandase from N. lactamdurans (Amycolatopsis lactamdurans, UniProt Q03047); assay: Ring expansion by cell-free extracts of S. lividans containing pUL702-202a (Example 7); assay type: biochemical; conditions: S. lividans pUL702-202a cell-free extract 6 mg/ml protein, substrate 5.6 mM, after 2 h of reaction
T4 construct: made in house; host or cells: S. lividans 1326 transformed with pUL702-202a, crude cell-free extract
Procedure: as §1, §2, §3

[4] = test system: resting S. clavuligerus NP1 cells; assay: Penicillin G ring expansion by resting cells grown on alcohol (Example 3); assay type: cell-based; conditions: 3 hours of reaction, 5.6 mM penicillin G; for Cephalosporin Production Specific: per mg DCW
Procedure: Microorganisms, Media, and Culture Conditions: All experiments were done using S. clavuligerus NP1. Seed cultures were developed using 250 ml baffled flasks containing 40 ml of MST medium: 1% soluble starch (Sigma Chemical Co., St. Louis, Mo.); 3% Trypticase Soy Broth Without Dextrose (BBL, Cockeysville, Md.); 90 mM MOPS buffer, pH adjusted to 7.0 before autoclaving. Each flask was inoculated with 50 μl of a spore suspension (stored in 20% glycerol at −80° C.) and incubated at 30° C., 250 rpm for 48 h.
From a seed culture, 4 ml were transferred to 500 ml baffled flasks containing 80 ml of MT medium (3% Trypticase Soy Broth Without Dextrose; 90 mM MOPS buffer, pH adjusted to 7.0 before autoclaving) with or without 1-2% ethanol or methanol. Alcohols were added just before inoculation. Cells were grown at 30° C., 250 rpm for 24 h. Mycelia from each flask were washed twice and, finally, resuspended in 10 ml of distilled water. Four ml of this cell suspension were used in the ring-expanding biotransformation.
Ring Expansion: The ring expansion mixture contained 1.8 mM FeSO4, 1.28 mM α-ketoglutarate, 4 ml cell suspension, 5.6 mM penicillin G and 50 mM MOPS (pH 6.5) in a final volume of 10 ml contained in 250 ml baffled Erlenmeyer flasks. Additions were made in the order established by Shen et al. (Shen et al., Enzyme Microb. Technol. 17:231-234, 1984). Incubation was at 220 rpm and 30° C. for 1 to 3 h. Samples were collected and centrifuged. Biotransformation activity was detected by paper disc-agar diffusion bioassay.
Detection of Expandase Activity: Expandase activity was detected by paper disc-agar diffusion bioassay. Two superimposed paper discs (¼ inch; Schleicher & Schuell, Keene, N.H.) were saturated with 100 μl of each supernatant or standard. After each application, the discs were allowed to dry for 30 min in a laminar hood and then placed on Petri plates containing 10 ml of LB (1% tryptone, 0.5% NaCl, 0.5% yeast extract, 0.1% glucose) 0.8% agar medium containing 50,000 IU/ml of penicillinase (Difco Bacto penase concentrate, Difco Laboratories, Detroit, Mich.) seeded with E. coli ESS (a β-lactam-supersensitive mutant). The plates were incubated overnight at 37° C. The penicillinase used is a narrow spectrum β-lactamase that destroys the substrate penicillin G but not cephalosporins. The diameters of zones of growth inhibition were measured and quantified with calibration curves using pure DAOG as standard.
Dry Cell Weight (DCW) Assay: Two samples of 1 ml were taken from each cell suspension prepared in distilled water (10 ml), centrifuged (14,000×g, 10 min) and dried to constant weight at 65° C. The weights listed are those in the reaction mixture.

[5] = cells grown in MT + 1% E (ethanol)
[6] = cells grown in MT + 1% M (methanol)
[7] = cells grown in MT + 2% E (ethanol)
[8] = cells grown in MT + 2% M (methanol)

T4 sequence (Q03047 whole entry): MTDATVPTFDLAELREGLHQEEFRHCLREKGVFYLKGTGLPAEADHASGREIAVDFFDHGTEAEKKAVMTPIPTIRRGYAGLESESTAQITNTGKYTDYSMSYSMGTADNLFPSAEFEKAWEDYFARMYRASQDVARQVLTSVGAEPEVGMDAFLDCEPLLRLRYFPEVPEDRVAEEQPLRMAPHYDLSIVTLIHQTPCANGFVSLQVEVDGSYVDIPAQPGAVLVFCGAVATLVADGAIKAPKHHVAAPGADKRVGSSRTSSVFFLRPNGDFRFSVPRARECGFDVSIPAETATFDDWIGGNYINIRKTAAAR
T3 sequence (P18548 whole entry): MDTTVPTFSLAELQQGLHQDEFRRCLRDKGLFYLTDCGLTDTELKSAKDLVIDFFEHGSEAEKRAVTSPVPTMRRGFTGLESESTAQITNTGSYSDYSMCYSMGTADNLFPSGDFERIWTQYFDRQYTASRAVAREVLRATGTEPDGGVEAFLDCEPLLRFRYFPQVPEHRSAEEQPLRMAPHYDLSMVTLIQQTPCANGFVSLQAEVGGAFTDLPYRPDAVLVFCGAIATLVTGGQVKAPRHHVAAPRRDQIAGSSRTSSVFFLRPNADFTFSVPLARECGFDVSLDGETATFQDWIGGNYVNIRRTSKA
T2 sequence (P18548 whole entry): as above

Question: With `CC1(C)S[C@@H]2[C@H](NC(=O)Cc3ccccc3)C(=O)N2[C@H]1C(=O)O` [Penicillin G, penicillin G] as the compound, how does the “substrate for expandase activity” value (C. acremonium expandase; crude extracts (Kohsaka et al. 1976; Demain et al.)) read?
Answer: Its value is “not”.

Question: What about the ring expansion (C. acremonium expandase; partially purified enzyme (Kupka et al. 1983)) of the same compound?
Answer: The ring expansion was “does not expand”.

Question: What about the production of cephalosporins [1] of the same compound?
Answer: Its production of cephalosporins is “about 7 μg/ml”.

Question: And the ring expansion [2]?
Answer: The ring expansion was “not”.

Question: And the production of cephalosporins [3]?
Answer: The production of cephalosporins was “approximately 8 μg/ml”.

Question: And the “Cephalosporin Production Volumetric” value [4, 5]?
Answer: Its value is 12.3 µg/mL.

Question: And the “Cephalosporin Production Specific” value [4, 5]?
Answer: Its value is 3.6 µg/mg.

Question: What about the “Cephalosporin Production Volumetric” value [4, 6] of the same compound?
Answer: The value was 5.2 µg/mL.

Question: What about the “Cephalosporin Production Specific” value [4, 6] of the same compound?
Answer: The value was 1.7 µg/mg.

Question: What about the “Cephalosporin Production Volumetric” value [4, 7] of the same compound?
Answer: Its value is 6.3 µg/mL.

Question: What about the “Cephalosporin Production Specific” value [4, 7] of the same compound?
Answer: The value was 7.0 µg/mg.

Question: And the “Cephalosporin Production Volumetric” value [4, 8]?
Answer: Its value is 4.3 µg/mL.

Question: And the “Cephalosporin Production Specific” value [4, 8]?
Answer: The value was 1.5 µg/mg.

Question: What about the “Cephalosporin Production Volumetric” value ([4]; cells grown in MT) of the same compound?
Answer: Its value is 5.3 µg/mL.

Question: What about the “Cephalosporin Production Specific” value ([4]; cells grown in MT) of the same compound?
Answer: The value was 1.5 µg/mg.
